Experimental data taken from patent publication US20240197742A1, “Therapeutic Combinations of a CD19 Inhibitor and a BTK Inhibitor” (Acerta Pharma B.V., priority 2015, published 2024).
“Also recorded” adds a separate entry of the source.

How the values were obtained:
CD8+ T cells [1] = experiment: CD8+ T cell viability; type: cell-based; details: anti-TCR and anti-CD28 coated wells, neutral conditions, 4 days
Procedure: Total T cells were plated on anti-TCR and anti-CD28 coated wells in the presence of both BTK inhibitors. Neutral culture conditions were used that will not polarize T cells to a helper lineage. […] Statistical significance was calculated using the Mann Whitney T-test.

B cell receptor = experiment: Whole blood potency: CD69 on CD19+ B cells after anti-human IgD; type: cell-based; details: blood from four healthy donors, 2 hours with compound, anti-human IgD 10 μg/mL 18 hours, read-out: EC50, CD69 on gated CD19+ B cells in whole blood
Raji = experiment: ADCC chromium release assay, Raji targets; type: cell-based, human; details: 1 μM; all rituximab concentrations; healthy donor NK cells
Procedure: All in vitro experiments were performed in triplicate.
ADCC assays were performed as follows. Briefly, target cells (Raji or primary CLL) were labeled by incubation at 37° C. with 100 μCi ^51Cr for 4 hours prior to co-culture with NK cells. Cells were washed, enumerated, and then added in triplicate to prepared 96-well plates containing treated NK cells at an effector:target (E:T) ratio of 25:1. […] Cultures were incubated at 37° C. for 4 hours, and then centrifuged. Supernatants were harvested and ^51Cr release was measured by liquid scintillation counting. All experiments were performed in triplicate.

CD8+ T cells [2] = experiment: Cytotoxic T cell (CTL) assay; type: cell-based; details: 500 nM, relative to vehicle
Procedure: Without being bound by any theory, CD8^+ T cells have two primary effector functions: (1) produce large amounts of IFN-γ (which activates macrophages), and (2) cytolytic activity. […] The targets were B lymphoblasts from lipopolysaccharide (LPS) treated cultures. The assay was performed by incubating different ratios of effectors:targets for 4 hours.

regulatory T cell (Treg) = experiment: Treg development from enriched CD4+ T cells; type: cell-based; details: anti-TCRβ plus anti-CD28, skewing cytokines, 4 days
Procedure: (§1) Enriched CD4^+ T cells are plated on 24-well culture dishes that have been precoated 2 hr with 250 μL anti-TCRβ (0.5 μg/mL) plus anti-CD28 (5 μg/mL) at 37° C. in PBS. The cells are then supplemented with media containing BTK inhibitors along with the skewing cytokines as indicated in the following. The Th17 and Treg cultures are grown for 4 days before analysis. The cells are maintained for an additional 3 days with skewing cytokines (Th17; 20 ng/mL IL-6, 0.5 ng/mL TGF-β, 5 μg/mL IL-4, 5 μg/mL IFN-γ and Treg; 0.5 ng/mL TGF-β, 5 μg/mL IL-4, 5 μg/mL IFN-γ) and are supplemented with IL2 as a growth factor.

[3] = within the tested dose range (through 840 mg); cited from earlier work
GPVI = GPVI platelet aggregation (convulxin); type: cell-based, human
Procedure: GPVI platelet aggregation was measured for Formula (2) and Formula (10) (ibrutinib). Blood was obtained from untreated humans, and platelets were purified from […] by centrifugation. Cells were resuspended to a final concentration of 350,000/μL in buffer containing 145 mmol/L NaCl, 10 mmol/L HEPES, 0.5 mmol/L Na2HPO4, 5 mmol/L KCl, 2 mmol/L MgCl2, 1 mmol/L CaCl2, and 0.1% glucose, at pH 7.4. Stock solutions of Convulxin (CVX) GPVI were prepared on the day of experimentation and added to platelet suspensions 5 minutes (37° C., 1200 rpm) before the induction of aggregation. Aggregation was assessed with a Chronolog Lumi-Aggregometer (model 540 VS; Chronolog, Havertown, PA) and permitted to proceed for 6 minutes after the addition of agonist. The results are reported as maximum percent change in light transmittance from baseline with platelet buffer used as a reference.
In FIG. 72, the results of CVX-induced (250 ng/mL) human platelet aggregation results before and 15 minutes after administration of the BTK inhibitors to 6 healthy individuals are shown.

Th17 cells = experiment: Th17 development from enriched CD4+ T cells; type: cell-based; details: anti-TCRβ plus anti-CD28, skewing cytokines, 4 days
Procedure: as §1

Row | SMILES | effect on CD8+ T cell viability (CD8+ T cells [1]) | EC50 (B cell receptor) [nM] | cell lysis, Raji (Raji) [%] | CD8+ T cell function as measured by % cytotoxicity (CD8+ T cells [2]; 4 days CTL generation) | CD8+ T cell function as measured by IFN-γ level (CD8+ T cells [2]) | effect on Treg development (regulatory T cell (Treg)) | effect on Treg development (regulatory T cell (Treg); listed as ibrutinib) | maximum tolerated dose (MTD) [3] | effect on GPVI platelet aggregation (GPVI; CVX-induced human platelet aggregation) | IC50 (GPVI; purified human platelets, convulxin (CVX)) [nM] | effect on Th17 cells / Th17 development (Th17 cells) | effect on Th17 cells / Th17 development (Th17 cells; listed as ibrutinib)
1 | C=CC(=O)N1CCC[C@@H](n2nc(-c3ccc(Oc4ccccc4)cc3)c3c(N)ncnc32)C1 [Formula (10), 1-[(3R)-3-[4-amino-3-(4-phenoxyphenyl)-1H-pyrazolo[3,4-d]pyrimidin-1-yl]piperidin-1-yl]prop-2-en-1-one] | strong, negative effect; also recorded: strongly affects | 6.1 | < 20 | affects | significant loss of function; also recorded: affects | strongly increases | increase | No maximum tolerated dose (MTD) was apparent | significantly inhibits | 130 | strongly inhibits | profound inhibition
2 | C=CC(=O)Nc1cccc(Nc2nc(Nc3ccc(OCCOC)cc3)ncc2F)c1 [Formula (17), N-(3-((5-fluoro-2-((4-(2-methoxyethoxy)phenyl)amino)pyrimidin-4-yl)amino)phenyl)acrylamide] | – | 121 | – | – | – | – | – | – | – | – | – | –
